From publication PMC2943425 (Journal of medicinal chemistry, 2010)

Tests used:
[1] = target: Substance P receptors (GPI) (Cavia porcellus, UniProt P30547); test: GPI substance P antagonist assay in the presence of 1 μM naloxone; parameters: species or system guinea pig; details: against Substance P induced contraction, n = 4
[2] = test system: neuropathic pain; details: cited from earlier work

Sequence of Substance P receptors (GPI) (P30547 whole entry): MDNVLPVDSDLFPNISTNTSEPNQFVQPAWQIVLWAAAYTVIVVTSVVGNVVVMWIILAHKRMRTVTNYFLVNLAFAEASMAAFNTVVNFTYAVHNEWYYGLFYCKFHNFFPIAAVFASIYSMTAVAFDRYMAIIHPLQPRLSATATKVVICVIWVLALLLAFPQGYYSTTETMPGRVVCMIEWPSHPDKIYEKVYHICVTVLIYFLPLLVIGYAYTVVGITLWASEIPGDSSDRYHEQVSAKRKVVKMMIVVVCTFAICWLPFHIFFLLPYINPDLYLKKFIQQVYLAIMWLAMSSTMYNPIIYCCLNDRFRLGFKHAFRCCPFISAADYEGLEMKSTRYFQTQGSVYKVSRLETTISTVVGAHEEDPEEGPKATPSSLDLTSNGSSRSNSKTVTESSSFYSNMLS

| Compound | SP antagonist Ke, GPI [1] [nM] | effect on neuropathic pain in animal models [2] | opioid-induced tolerance in animal models [2] |
| --- | --- | --- | --- |
| CC(=O)N[C@@H](Cc1c[nH]c2ccccc12)C(=O)OCc1cc(C(F)(F)F)cc(C(F)(F)F)c1 [L-732,138] | 250 ± 87 |  |  |
| Tyr^1-D-Ala^2-Gly^3-Phe^4-Met^5-Pro^6-Leu^7-Trp^8-O-[3′,5′-(CF3)2-Bzl] [TY005] |  | powerful attenuation of neuropathic pain | without producing the opioid-induced tolerance |
